Measurements from patent US8901129B2, “Methods of facilitating neural cell survival using GDNF family ligand (GFL) mimetics or RET signaling pathway activators” (GeneCode AS, priority 2009, dated 2014).

Tested on: RET-expressing reporter cell line (RET alone)
Assay: Reporter-gene luciferase activity assay, dose-response (FIG. 5)
Type: cell-based
Details: cells expressing RET alone; 1-50 μM, 24 h
Description: Generation of stable cell lines. MG87RET murine fibroblast were plated on […] dishes and transfected with 4 μg of G4-Luc, Gal4-Elk (Baloh et al., 2000) and GFRα1 expressing plasmid (“αLUC” cells) or empty vector (“NOα” cells) containing neomycin-resistance gene in ratio 4:1:1 using Lipofectamine 2000 (Invitrogen) for DNA delivery as described by manufacturer. The following day, cells were trypsinized and plated in low density on 10-cm tissue culture dishes. Stable transformants were selected in the presence of 500-750 μg/ml geneticin (Invitrogen). Established cell lines were maintained in DMEM, 10% fetal bovine serum (FBS), 100 μg/ml Normocin (Invivogene), 2 μg/ml of puromycin, 500 μg/ml of geneticin, 15 mM HEPES, pH 7.2. Pathdetect Elk-1 system and human GFRα1-expressing plasmid (“Strat-Luc” cells) or empty vector (control cell line “NOStratis”) cells were selected and maintained in the DMEM, 10% FBS, 100 μg/ml Normocin (Invivogene), 2 μg/ml of puromycin, 500 μg/ml of G418, 2 μg/ml of blasticidin S, 15 mM HEPES, pH 7.2.
Cells were plated on 96-well plates (or 384-well) in cell density 20 000 (or 5 000 for 384-well format) cells per well in DMEM, 10% FBS, 100 μg/ml Normocin, 2 μg/ml puromycin, 500 μg/ml of G418, 15 mM HEPES, pH 7.2 one day before assay. The following day, the compounds were added to a final concentration of 1-50 μM. Structures of the compounds are shown in the description of FIG. 5, above. Cells were allowed to produce luciferase for 24 h, then lysed in 20 μl of 1×Cell culture lysis reagent (Promega) and freeze-thawed once to ensure complete lysis. Then 5 μl of the lysate was mixed (on ice) with 20 μl of luciferase assay substrate (Promega) in a well of black Isoplate (PerkinElmer). Luminescence was counted on MicroBeta 2 counter (PerkinElmer) twice. Data are presented as fold induction, where the corresponding concentration of DMSO was used as a reference.

Structure (SMILES) | induction of luciferase expression
CCN(CC)S(=O)(=O)c1ccc(OC)c(N2CCN(C(=O)c3cc(F)ccc3C(F)(F)F)CC2)c1 [BT13] | No significant effect
COc1ccc(S(=O)(=O)N2CCc3ccccc3C2)cc1N1CCN(C(=O)c2cc(F)ccc2C(F)(F)F)CC1 [BT16] | No significant effect
